Values quoted from earlier work in patent publication US20170326147A1, “INHIBITING BLOOD PRESSURE DROP IN THE TREATMENT OF ERECTILE DYSFUNCTION” (FORMUREX, INC., priority 2014, published 2017).
Where a name gives a salt, the structure may show the parent alone.

What was measured:
[1] = test system: plasma proteins; conditions: independent of total drug concentration

Row | bound to plasma proteins [1] | Tmax average, fasting subjects (fasting) | delay of mean Tmax by food in the stomach (fed) | bioavailability (mean absolute), oral administration (oral, absorption through the digestive tract) | SMILES
1 | approximately 96% | – | – | – | CCCc1nn(C)c2c(=O)[nH]c(-c3cc(S(=O)(=O)N4CCNCC4)ccc3OCC)nc12 [N-desmethyl metabolite, N-desmethyl sildenafil]
2 | approximately 96% | about 1 hr | about 1.1 hr | about 40% | CCCc1nn(C)c2c(=O)[nH]c(-c3cc(S(=O)(=O)N4CCN(C)CC4)ccc3OCC)nc12 [sildenafil citrate]
